Data reported in patent US12031087B2, “Oxygenated solvents for improved production of oil and gas” (Board of Regents, The University of Texas System, priority 2019, dated 2024).
Where two headings read alike, the source gives them in different places.

Legend:
[1] = Coreflooding of fractured cores, vertical (Example 2)
Method: Experimental Procedure for Coreflooding. […] The Indiana limestone cores have the common dimensions with a diameter of 0.0254 m and a length of 0.127 m. The cores were saturated with RB first and then oil, during which the core properties were measured, such as porosity, permeability, and water and oil saturations.
It includes an accumulator for crude oil, a pump, a Hassler-type core holder, a hydraulic manual pump to maintain the overburden pressure, a differential pressure gauge, cylinders, and an oven. After a core was placed in the core holder, oil was injected into the cores at 100 cm^3/h and 347 K until no water production was observed.
An artificial fracture was created along the longitudinal axis using an electric saw for each core (FIG. 20). By following the procedure of Mejia, Teflon spacers with 0.001 m in width and 0.127 m in length were placed along two edges of the fracture to maintain a fracture aperture. Then, the core halves were carefully put together with the Teflon spacers in the fracture, wrapped with a Teflon tube, and placed inside a vertically oriented coreholder.
FIG. 21 provides a schematic of the experimental setup for coreflooding. It consists of accumulators for crude oil, RB, and chemical solution (3-pentanone or surfactant), a pump, a Hassler-type core holder, a hydraulic manual pump to maintain the overburden pressure, a differential pressure gauge, cylinders, and an oven. […] After a fractured core was placed in the coreholder, the oven temperature was increased to reservoir temperature (347 K). Then, the core was flooded with crude oil to remove any gas inside the fracture and measure the fracture permeability using the flow rate of 900 cm^3/h. The overburden pressure was adjusted so that all cores used in this research had similar fracture apertures and fracture permeabilities.
Fracture permeabilities were calculated. The equation for flow between parallel plates b=(3πdke)^1/3 was used to estimate a fracture aperture, where b is the fracture aperture, d is the core diameter, and ke is the effective oil permeability of the fractured core. […] Af and Am are cross-sectional areas of the fracture and matrix, respectively. kf and km are permeabilities of the fracture and matrix, respectively.
The initial RB stage was at 6 cm^3/h for 1.5 pore volumes injected (PVI), then at 0.05 cm^3/h for 0.3-0.4 PVI, and at 6 cm^3/h until there was no oil production. After that, a chemical slug (3-pentanone or surfactant) was injected at 0.6 cm^3/h for 1.6 PVI. Finally, the chase RB was injected at 0.6 cm^3/h. […] However, it was terminated after 1.2 PVI of the chase RB for core 1 because of operational constraints.
The coreflood effluent was collected in plastic graduating cylinders at room temperature. To correct the oil recovery factor for 3-pentanone solubility in oil, the 3-pentanone concentration in recovered oil was measured by the proton nuclear magnetic resonance (H NMR) method for the chemical slug and chase RB flooding periods for core 1.

[2] = 347 K
Description: Contact Angle Experiments. […] The procedure largely follows that of Example 1, but as explained below, a change to the previous procedure was necessary because it was not possible to continuously monitor oil droplets on the calcite surface with the surfactant solution.
Before the contact angle measurement, the chemical solution and RB were separately degasified at elevated temperatures. Then, oil-aged calcite pieces were placed in RB. Oil droplets were placed on the bottom surface of a calcite piece in the RB glass chamber.
The calcite piece was continued to be placed in the surfactant solution and taken out after 1 day. Then, the calcite piece was rinsed with RB and placed in RB with no surfactant. […] A photo of the oil droplet was taken then. The contact angles of both sides of each oil droplet were measured using onscreen protractor software. An average contact angle and standard deviation were then calculated.

[3] = Description: Experimental Procedure for Flooding/Soaking Experiments. […] This section describes the preparation of the tight cores and the flooding/soaking experiments. Properties of the tight carbonate cores and the injection scheme for two flooding/soaking experiments are also summarized in this section.
Rocherons carbonate cores (Kocurek Industries Inc.) were used in this research. […] In this research, 11 core pieces were saturated only by crude oil and 5 core pieces were saturated by both crude oil and reservoir brine at room temperature. To saturate core pieces by crude oil, they were placed in an accumulator, which was evacuated for at least 24 hours. […] The weights of the core pieces were measured before and after saturating by crude oil to quantify the oil volume in the cores. The volume so determined was assumed to be the accessible pore volume (PV) of the core. […] It consists of an accumulator for reservoir brine, a pump, a Hassler-type core-holder, a hydraulic manual pump to maintain the overburden pressure and cylinders. Before brine injection, the inlet tubing of the coreholder was evacuated for 10 seconds to prevent injecting air into the core. The core was flooded by brine until the injected brine volume exceeded the accessible pore volume. […] The weights of the core pieces were measured after they were re-saturated by the crude oil. The brine and oil volumes in the core pieces were calculated by the following equations. […] Then, oil and brine saturations in each core piece can be calculated. Table 19 presents the properties of the core pieces, including the length of each core piece, accessible pore volume, and oil and brine saturations. Core pieces #1-#5 in Table 19 were saturated by both brine and oil.
An artificial fracture was created along the longitudinal axis using an electric saw for each core piece. Teflon spacers with 0.001 m in width were placed along two edges of the fracture to maintain a fracture aperture. Then, the core halves were carefully put together with the Teflon spacers placed in the fracture, wrapped with a Teflon tube and placed inside a horizontally-oriented core holder, with the fracture vertically-oriented. Teflon spacer was not placed in the space between core pieces. […] When assembling the core pieces for Case 1, core pieces were put so that oil saturation changes monotonically. Qualitatively, the longitudinal fracture served as a propped fracture and the fractures normal to it served as unpropped fractures in terms of hydraulic paths.
FIG. 59 presents a schematic of the experimental set-up for the flooding/soaking experiment. […] Then, the system was evacuated for 10 seconds to remove any air trapped in the fractures. After that, the core was flooded with crude oil to measure the fracture permeability by using the flow rate of 500 cm^3/hr under certain overburden pressure. Table 20 provides the pressure drops along the cores at a certain flow rate and the overburden pressures used.
During flooding/soaking experiments, the RB was injected at 6 ml/hr until no more oil production was observed. Then, the surfactant solution was injected at 6 ml/hr to fill the volume from the inlet of the coreholder until the outlet line of the coreholder, which was followed by a 10-hour soaking period. After that, the surfactant solution was injected at 6 ml/hr to chase the fluid in the system and to recover the produced oil during the first soaking period. The system was then shut-in for a second 10-hour soaking period. RB was then injected at 6 ml/hr to chase the fluid in the system and to recover the produced oil during the second soaking period. Finally, the system was shut-in for a 12-hour soaking period, followed by RB injection to chase the fluid in the system until no oil production.
The effluent was collected in plastic graduating cylinders at room temperature.

[4] = 24 h after immersion in 1.0 wt % surfactant solution

For “2-ethylhexanol-4 propylene oxide-15 ethylene oxide [2-EH-4PO-15EO]”, the “incremental oil recovery factor, chemical slug stage” value ([1]; 1.6 PVI slug after first RB flood, 1.1 wt % 3-pentanone in RB (core 1) or 1.0 wt % 2-EH-4PO-15EO in RB (core 2), 347 K) was 23.6%, the “incremental oil recovery factor, chase RB flooding stage” value ([1]; 7.0 PVI chase RB, core 2, 347 K) was 23.7% and the “total improved oil recovery” value ([1]; chemical slug + chase RB stages (1.2 PVI chase core 1; 7.0 PVI chase core 2), 347 K) was 47.3%. The Average contact angle [2, 4] was 47.1 deg, the “contact angle, left side” value [2, 4] was 47.5 deg and the “contact angle, right side” value [2, 4] was 46.8 deg. For the same substance, the Average contact angle ([2]; at the initialization) was 134.1 deg, the “contact angle, left side” value ([2]; at the initialization) was 133.2 deg and the “contact angle, right side” value ([2]; at the initialization) was 135.1 deg. The “total improved oil recovery” value ([3]; Case 1 (with initial water)) was 76.11 % OOIM, the “Cumulative improved oil recovery factor by surfactant solution” value (shortened to “Cumulative improved oil recovery factor”) ([3]; Case 1 (with initial water), after the 1st soaking period) was 0.3348 and the “Cumulative improved oil recovery factor” value ([3]; Case 1 (with initial water), after the 2nd soaking period) was 0.6303. The “Cumulative improved oil recovery factor” value ([3]; Case 1 (with initial water), after the 3rd soaking period) was 0.7611, the incremental oil recovery ([3]; Case 1, after the 1st soaking period) was 33.48 % OOIM and the incremental oil recovery ([3]; Case 1, after the 2nd soaking period) was 29.55 % OOIM. The incremental oil recovery ([3]; Case 1, after the 3rd soaking period) was 13.09 % OOIM, the “total improved oil recovery” value ([3]; Case 2 (without initial water)) was 78.42 % OOIM and the “Cumulative improved oil recovery factor” value ([3]; Case 2 (without initial water), after the 1st soaking period) was 0.3555. The “Cumulative improved oil recovery factor” value ([3]; Case 2 (without initial water), after the 2nd soaking period) was 0.6647, the “Cumulative improved oil recovery factor” value ([3]; Case 2 (without initial water), after the 3rd soaking period) was 0.7842 and the incremental oil recovery ([3]; Case 2, after the 1st soaking period) was 35.55 % OOIM. For the same substance, the incremental oil recovery ([3]; Case 2, after the 2nd soaking period) was 30.92 % OOIM and the incremental oil recovery ([3]; Case 2, after the 3rd soaking period) was 11.95 % OOIM.
